# Assay results taken from article PMC6927504, “Screening of House Dust from Chinese Homes for Chemicals with Liver X Receptors Binding Activities and Characterization of Atherosclerotic Activity Using an in Vitro Macrophage Cell Line and ApoE^−/− Mice” (Environmental Health Perspectives, 2019).
# Tested on: ABCG1
# Test: qRT-PCR of ABCG1 in peritoneal macrophages isolated from exposed C57BL/6 mice
# Format: in vivo, mouse
# Details: 200 mg/kg BW oral gavage for 7 d, control set to 1, p<0.01
# Procedure: Total RNA was isolated from RAW264.7 cells and mouse peritoneal macrophages using TRIzol reagent according to the manufacturer’s instructions. Then a Nanovue Plus™ spectrophotometer (GE Healthcare Life Science) was used to analyze the concentration, quality, and purity of the RNA. Total RNA ( 1μg ) was mixed with oligo deoxythymine (dT) ( 1μL ) at 70°C for 5 min and then combined with a mixture containing Moloney murine leukemia virus (MMLV) reverse transcriptase ( 1μL ), deoxy-ribonucleoside triphosphate (dNTP) ( 1.25μL ), Recombinant RNasin® Ribonuclease Inhibitor (Promega) ( 0.65μL ), and MMLV buffer ( 5μL ) at 42°C for 60 min. The SYBR® Green PCR Kit (TOYOBO) was used for RT-PCR analysis. Real-time fluorescence detection was performed using the StepOnePlus™ sequence detection system (Applied Biosystems). […]
# All experiments related to animals were approved by the institutional animal care and use committee of Peking University and followed the guidelines for animal experiments of the university as well as for experimental animals in China. […] Body weight (BW) was measured every week during the dosing period. […] Considering that this study assessed the effects of short-term exposure to TPHP, whereas humans are exposed to TPHP over a lifelong period, the present study used exposure doses that were higher than that of human exposure from house dust. […]
smiles,measurement,value
"O=P(Oc1ccccc1)(Oc1ccccc1)Oc1ccccc1 [TPHP, triphenyl phosphate]",ABCG1 gene expression in peritoneal macrophages relative to control,0.30±0.08 fold
